IC50 data for one compound are collected here from BindingDB's records for doi:10.1016/S0960-894X(00)80511-9 (1992).

The target in this experiment is Seed linoleate 13S-lipoxygenase-1 (Glycine max) (UniProt P08170). Kind of experiment: Inhibitory activity against soybean 15-lipoxygenase was evaluated.
Seed linoleate 13S-lipoxygenase-1 (Glycine max), sequence (P08170 whole entry, looked up): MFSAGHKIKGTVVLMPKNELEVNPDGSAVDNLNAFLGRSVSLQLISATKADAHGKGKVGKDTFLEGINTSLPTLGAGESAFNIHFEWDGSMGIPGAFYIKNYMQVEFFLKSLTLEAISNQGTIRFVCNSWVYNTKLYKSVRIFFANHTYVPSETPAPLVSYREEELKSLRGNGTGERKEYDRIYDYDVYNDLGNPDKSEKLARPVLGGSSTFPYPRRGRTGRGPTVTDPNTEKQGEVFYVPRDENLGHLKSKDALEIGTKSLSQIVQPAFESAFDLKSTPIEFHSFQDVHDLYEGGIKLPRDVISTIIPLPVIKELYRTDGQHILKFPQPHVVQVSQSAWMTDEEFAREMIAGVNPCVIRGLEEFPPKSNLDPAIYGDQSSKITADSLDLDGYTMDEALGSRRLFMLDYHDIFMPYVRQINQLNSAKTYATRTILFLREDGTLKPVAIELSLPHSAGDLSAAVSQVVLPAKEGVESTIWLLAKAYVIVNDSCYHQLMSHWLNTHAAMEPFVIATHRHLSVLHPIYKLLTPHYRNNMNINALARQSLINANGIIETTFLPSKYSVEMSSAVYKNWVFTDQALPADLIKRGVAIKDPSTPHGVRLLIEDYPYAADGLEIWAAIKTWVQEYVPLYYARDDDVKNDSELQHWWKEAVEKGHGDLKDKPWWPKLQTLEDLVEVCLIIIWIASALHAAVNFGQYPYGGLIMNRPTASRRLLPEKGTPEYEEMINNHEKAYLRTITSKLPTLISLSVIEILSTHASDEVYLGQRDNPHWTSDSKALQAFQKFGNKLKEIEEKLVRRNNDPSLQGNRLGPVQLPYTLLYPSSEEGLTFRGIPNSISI

Take `NC1=NN(c2cccc(C(F)(F)F)c2)CC1` [1-(3-Trifluoromethyl-phenyl)-4,5-dihydro-1H-pyrazol-3-ylamine]: inhibition was half-maximal at 213 µM (IC50).
